Here are results for two molecules from patent US5312816A, “Method of combatting osteoporosis in mammalian subjects, utilizing organic boron compounds” (priority 1993, dated 1994).

Data set [1] deals with Acid phosphatase. Nature of the data set: Mouse hepatic lysosomal acid phosphatase activity. Type of data set: biochemical. The settings on record: Table V; mouse hepatic, 60 min incubation. The source says: (§1) 1. Cf1 male mouse hepatic 10% homogenates in 0.25M sucrose+0.001MEDTA,pH 7.2.
(§2) Lysosomal Enzymes - free and total [triton X-100].
1. Acid phosphatase -beta glycerol-3-phosphate, pH 5.0, released IP 720 nm.
Acid phosphatase activity -

In the next data set the test system is Elastase. Nature of the data set: Mouse macrophage elastase activity. As to conditions: Table VIII; mouse macrophages, 60 min incubation; read-out: Elastase IC50. The data set is classed as cell-based.
In data set [2] the test system is Acid phosphatase. The data set is described as follows: Mouse macrophage acid phosphatase activity. As to conditions: Table VII; mouse macrophage cultured cells, 60 min incubation; read-out: Acid Phosphatase IC50. The data set is classed as cell-based.
The subject of another data set is Cf1 male mice. The data set is described as follows: Writhing reflex, 0.6% acetic acid. As to conditions: Mus musculus, ip; Table IV; 8 mg/kg I.P. Type of data set: in vivo. A general note: In writhing tests, fewer writhes than in controls are read as antinociception.
In data set [3] the test system is Aryl sulphatase. The data set is described as follows: Mouse macrophage aryl sulphatase activity. Type of data set: cell-based. As to conditions: Table VII; mouse macrophage cultured cells, 60 min incubation; read-out: Aryl Sulphatase IC50.
The target of another data set is T1, Prostaglandin synthetase (Bos taurus, UniProt O62664).
T1 construct: Prostaglandin synthetase purified beef seminal vesicle; from tissue
T1 sequence (O62664 25-600): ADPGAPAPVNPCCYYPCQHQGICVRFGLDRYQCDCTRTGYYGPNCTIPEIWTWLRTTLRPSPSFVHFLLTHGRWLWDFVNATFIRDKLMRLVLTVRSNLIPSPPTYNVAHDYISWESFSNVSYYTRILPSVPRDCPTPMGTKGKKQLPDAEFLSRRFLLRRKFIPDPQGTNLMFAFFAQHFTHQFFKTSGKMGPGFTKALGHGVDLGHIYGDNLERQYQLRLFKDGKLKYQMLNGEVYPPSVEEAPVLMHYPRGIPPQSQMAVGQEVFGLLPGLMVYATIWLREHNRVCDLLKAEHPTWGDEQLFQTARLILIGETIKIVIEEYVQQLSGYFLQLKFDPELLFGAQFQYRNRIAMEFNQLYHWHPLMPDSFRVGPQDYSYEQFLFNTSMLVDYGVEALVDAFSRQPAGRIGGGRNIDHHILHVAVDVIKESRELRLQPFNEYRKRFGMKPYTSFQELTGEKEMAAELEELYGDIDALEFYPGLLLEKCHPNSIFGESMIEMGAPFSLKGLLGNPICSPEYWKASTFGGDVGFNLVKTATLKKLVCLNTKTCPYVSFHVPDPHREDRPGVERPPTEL
The data set is described as follows: Prostaglandin synthetase (cyclooxygenase), purified beef seminal vesicle. Type of data set: biochemical. As to conditions: Table IX; commercial enzyme preparation; read-out: Beef Prostaglandin Cyclooxygenase IC50. An excerpt: (§3) Prostaglandin synthetase purified beef seminal vesicle ^3 H arachidonic acid (86.2 Ci/mmol), tlc separation.

In another data set the test system is Sprague Dawley Rats. Nature of the data set: Anti-inflammatory activity in Sprague Dawley rats. Type of data set: in vivo. The settings on record: Table IV; 8 mg/kg I.P.
The target of data set [4] is Aryl sulphatase. The data set is described as follows: Mouse hepatic lysosomal aryl sulphatase activity. The data set is classed as biochemical. As to conditions: Table V, 60 min incubation.
From the text: as §1, §2
3. Aryl sulphatase- p-nitrocatechol sulfate, pH
5. 8 p-nitro-catechol product 510 nm.

The target in another data set is T2, Cathepsin D (Mus musculus, UniProt P18242).
T2 construct: azocasein assay pH 5.0
T2 sequence (P18242 65-410): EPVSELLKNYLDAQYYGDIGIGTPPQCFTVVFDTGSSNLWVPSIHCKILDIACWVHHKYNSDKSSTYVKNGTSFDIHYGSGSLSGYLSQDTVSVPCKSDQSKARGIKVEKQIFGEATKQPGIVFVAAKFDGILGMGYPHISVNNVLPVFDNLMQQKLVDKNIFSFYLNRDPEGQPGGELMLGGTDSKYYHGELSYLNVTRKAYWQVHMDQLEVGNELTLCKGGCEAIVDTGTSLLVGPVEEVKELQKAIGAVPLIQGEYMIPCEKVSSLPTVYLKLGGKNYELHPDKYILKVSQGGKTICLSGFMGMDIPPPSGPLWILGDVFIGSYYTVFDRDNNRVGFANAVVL
The data set is described as follows: Mouse hepatic lysosomal cathepsin D activity. Type of data set: biochemical. The settings on record: Table V; mouse hepatic, 60 min incubation; read-out: Cathepsin D IC50.
From the text: as §1, §2
2. Acid Cathepsin D -azocasein-pH 5.0, hydrolytic azo-peptide produce 366 nm.
Cathepsin azo casein activity -

Data set [5] relates to human osteoporosis fibroblastic cells. Nature of the data set: Cytotoxicity against growth of human osteoporosis fibroblastic cells. The data set is classed as cell-based. The settings on record: Fibroblast, Table XX, read-out: Cytoxicity ED-50 Osteoporosis Fibroblasts.
The subject of data set [6] is Prostaglandin cyclooxygenase. Nature of the data set: Mouse macrophage prostaglandin cyclooxygenase activity. As to conditions: Table VIII; mouse macrophages, 60 min incubation; read-out: Prostaglandin Cyclooxygenase IC50. Type of data set: cell-based.
From the text: 3. Mouse macrophages J774A.1 BALB/c
as §3

Another data set deals with Trypsin. Nature of the data set: Mouse macrophage trypsin (BAEE) activity. Type of data set: cell-based. As to conditions: Table VIII; mouse macrophages, 60 min incubation; read-out: Trypsin BAEE IC50.
The test system of a further data set is human osteosarcoma cells. The data set is described as follows: Cytotoxicity against growth of human osteosarcoma cells. Type of data set: cell-based. The settings on record: Table XX; human osteosarcoma (ATCC); read-out: Cytoxicity ED-50 Osteosarcoma.
In data set [7] the test system is urinary excretion of calcium, magnesium, phosphorus. The settings on record: in the diet at 3 mg/day; cited from earlier work.
A further data set relates to testes. As to conditions: 250 mg/kg for 16 days; cited from earlier work.

The structures appear in SMILES notation. Structures can show the parent of a compound that is named as a salt.

From the text for Elastase: Elastase- N-succinyl-L-alanyl-L-alanine-p-nitroanilide, pH 8.0, p-nitro anilide 410 nm.
From the text for Trypsin: 1. Trypsin- N-benzoyl-L-arginine ethyl ester pH 8.0, hydrolytic product 253 nm.

Take `C[N+](C)(C)[BH2-]C(=O)NO` [Compound 14, Trimethylamine-boranecarbohydroxamic acid tetraphenylborate salt.]: the IC50 against Acid phosphatase [1] came to 4220 nM; with Elastase it was 1490 nM; in the data set on Acid phosphatase [2], 3960 nM; in the data set with Aryl sulphatase [3] it was 1370 nM; on Prostaglandin synthetase it was 1300 nM; on Aryl sulphatase [4] it was 5850 nM. The IC50 on Cathepsin D came out at 3660 nM; in data set [5], 1.21 µg/mL; in data set [6] it was 1610 nM; in the data set on Trypsin, 2140 nM; in the data set with human osteosarcoma cells it was 1.14 µg/mL. The molecule also had a response vs control in vivo at 8 mg/kg with Cf1 male mice of 50%. The “Anti-Inflammatory Activity Sprague Dawley Rats” value in the data set on Sprague Dawley Rats is 60 % Control.

Consider `OB(O)O` [boric acid], for which the “urinary excretion of calcium, magnesium and perhaps phosphorus” value in [7] was “blocks the urinary excretion of calcium, magnesium and perhaps phosphorus”. Moreover, the effect on testes entry in the data set with testes is “severe degeneration of the testes with giant cell formation, pyknosis and exfoliation”.
